The experiment relates to CEM cells HIV-1 protection, formazan growth assay. Nature of the experiment: NCI AIDS Antiviral Assay. To be noted: for IC50: measured here: growth of uninfected CEM cells. In a few lines: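 Steps: treat uninfected and HIV-1-infected human CEM cells at five drug levels; quantify growth by soluble formazan; retest any compound reaching 50% protection; classify actives from the retest.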

Values joined by “and” are separate entries in the source; they are usually repeats but may differ in a detail not shown here. Equal entries are not always repeated. Active and inactive are the calls of the source.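 Rule for the calls: active = compounds giving half or more protection of infected cells from virus-caused growth loss, again on retest; inactive = the rest.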 Where a SMILES comes first, the peptide text is derived from it. [ ]: non-standard residue; d: D form. The star is where a group is joined. ξ: configuration not given here. Arg(NO2) = N=C(NCCC[CH](N)C(=O)O)N[N+](=O)[O-]; Cbz = O=C(OCc1ccccc1)*; Boc = CC(C)(C)OC(=O)*; ξV = CC(C)C(N)C(=O)O; OBn = c1ccc(CO*)cc1 Bounds are passed on as bounds.

For `COn1c2ccccc2c2c1cc1ccccc1[n+]2[O-]`, the EC50 was greater than 67.6 µM and the IC50 amounted to 31.6 µM.

With `CCCCCCCCCCCCC1N=C(N)NC2(CCCO2)C1C(=O)OC` (stereo unspecified), the EC50 is greater than 200 µM and the IC50 was 5.75 µM.

As for `CC(C)C(NC(=O)CNC(=O)OC(C)(C)C)C(=O)OCc1ccccc1` (stereo not drawn) (Boc-Gly-[ξV]-OBn), the EC50 is greater than 200 µM and the IC50 came to 148 µM.

For the compound `CCOC(=O)NP(=O)(Nc1ccccc1)Nc1ccccc1`, the EC50 is greater than 200 µM and the IC50 is greater than 200 µM.

With `CC(C)=CCC/C(C)=C/Cc1cc(O)c(Br)cc1O`, the EC50 is greater than 145 µM and the IC50 was 24 µM.

As for `O=c1oc2ccccc2c(O)c1C(c1cc(OCc2ccccc2)cc(OCc2ccccc2)c1)c1c(O)c2ccccc2oc1=O`, the EC50 was greater than 200 µM and the IC50 was 9.55 µM.

In the case of `CC(C)c1ccc2c(c1)CCC1C2(C)CCCC1(C)C(O)c1ccccc1` (stereo unspecified), the EC50 is greater than 200 µM and the 50% inhibitory concentration (IC50) stood at 38 µM.

On to `CC(C)CCC1(O)O[C@H]2C[C@H]3[C@@H]4CCC5CC(=O)C=C[C@]5(C)[C@H]4CC[C@]3(C)[C@H]2[C@@H]1C` (stereo partly specified), for which the EC50 was greater than 151 µM and the IC50 was 21.4 µM.

`O=c1[nH]c2ccccc2c(O)c1N=Nc1cccc(C(F)(F)F)c1`: the EC50 was greater than 200 µM and the IC50 was greater than 200 µM.

On to `ClCCC[Si]12OCCN(CCO1)CCO2`, for which the result was inactive.

For the compound `COc1cc(NC(=O)CC(C)=O)cc2c(C)cc(=O)n(C)c12`, the EC50 was greater than 200 µM and the IC50 came to 117 µM.

Consider `CN1N=C(c2ccncc2)OC1c1ccccc1F` (stereo unspecified), for which the EC50 was greater than 200 µM and the concentration for half-maximal inhibition (IC50) was determined as 129 µM.

For the compound `O=C1c2cc3c(cc2CC12Cc1ccc4c(c1C2=O)CCCC4)CCCC3` (stereo unspecified), the EC50 is greater than 200 µM and the IC50 is greater than 200 µM.

`CCOC(=O)C(C)NC(=O)C(C)NC(=O)C(C)NC(=O)C(C)NC(=O)C(C)NC(=O)C(C)NC(=O)C(C)NC(=O)OCc1ccccc1` (stereo unspecified) (Cbz-AAAAAAA-OEt; configuration not given here): the EC50 is greater than 200 µM and the IC50 was greater than 200 µM.

For the compound `CN(CC(=O)O)S(=O)(=O)c1ccc(Cl)cc1`, the outcome was inactive.

The compound `O=c1cc2oc3cc(O)c(O)cc3c(-c3ccccc3O)c-2cc1O` gave an EC50 greater than 200 µM and an IC50 of 115 µM.

Regarding `COc1cc2oc(=O)cc(C)c2cc1OC`, the EC50 is greater than 200 µM and the IC50 was greater than 200 µM.

For `COC(=O)C(CCCN=C(N)N[N+](=O)[O-])NC(=O)C(Cc1ccccc1)NC(=O)C1CCCN1C(=O)OCc1ccccc1` (stereo not drawn) (Cbz-Pro-Phe-[Arg(NO2)]-OMe; configuration not given here), the EC50 is greater than 112 µM and the IC50 was greater than 112 µM.

Turning to `CC(=O)Nc1n[n+]([O-])c2cc(C)ccc2[n+]1[O-]`, the EC50 is greater than 200 µM and the IC50 came out at 0.955 µM.

As for `O=C(C[N+]12CCC(O)C1C(CO)CC2)c1ccc(Br)cc1` (stereo unspecified), the EC50 is greater than 575 µM and the IC50 is greater than 575 µM.

Regarding `O=c1cc(-c2ccccc2)oc2cccc(O)c12`, the EC50 was greater than 200 µM and the IC50 was greater than 200 µM.

Turning to `[C-]#[O+].[C-]#[O+].[C-]#[O+].[Cr].c1ccc(P(CC[PH+](CC[PH+](CC[PH+](c2ccccc2)c2ccccc2)c2ccccc2)c2ccccc2)c2ccccc2)cc1` (stereo unspecified), the EC50 was greater than 4.68 µM and the IC50 was greater than 4.68 µM.

Consider `O=c1[nH]c(=O)n(C2OC(CO)C(O)C2O)c2ncc(-c3ccc(-c4ccccc4)cc3)nc12` (stereo unspecified), for which the EC50 was greater than 20 µM and the IC50 was greater than 20 µM.

In the case of `Cc1cc(=O)oc2cc(OCc3nc4ccccc4c(=O)[nH]3)ccc12`, the EC50 is greater than 107 µM and the IC50 is greater than 107 µM.

As for `CC1(C)c2ccccc2-c2nc3ccccc3c3c2C1OC3=O` (stereo unspecified), the EC50 was greater than 832 µM and the IC50 is greater than 832 µM.

As for `O=C1NC(=S)N/C1=C\c1ccc(Br)s1`, the EC50 was greater than 200 µM and the IC50 amounted to 112 µM.

For the compound `Nc1nc(Cl)c(N)c(NCC2(CO)CC(OCc3ccccc3)C2)n1` (stereo unspecified), the EC50 was greater than 20 µM and the 50% inhibitory concentration (IC50) worked out at 2.14 µM.

Turning to `Cc1cc2c(c(C(N)=O)c1C)-c1cc(Cl)cc(Cl)c1C2=O`, the EC50 is greater than 22.4 µM and the IC50 is greater than 22.4 µM.

With `Cc1ccccc1NC(=O)C(=O)c1c(O)c2ccc(O)cc2oc1=O`, the EC50 was greater than 741 µM and the IC50 came to 331 µM.

For `C=C1C(=O)O[C@@H]2CC(C)C3C(OC(C)=O)CC(OC(C)=O)[C@@]3(C)C[C@H]12` (stereo partly specified), the EC50 was greater than 102 µM and the concentration for half-maximal inhibition (IC50) turned out to be 5.37 µM.

As to `Cc1ccc2c(c1)[nH]c(=S)n2C=C1C(=O)CC(C)(C)CC1=O`, the EC50 is greater than 200 µM and the IC50 is greater than 200 µM.

For `N#CC(/C(CCCC(=O)Nc1cccc([N+](=O)[O-])c1)=N\NC(=O)c1c(O)ccc2ccccc12)c1nc2ccccc2s1` (stereo unspecified), the result was inactive.

For `CCC(C)C(NC(=O)C(CCCN=C(N)N)NC(=O)C(CC(N)=O)NC(=O)C(Cc1cnc[nH]1)NC(=O)C(N)CC(C)C)C(=O)NC(C(=O)NC(CC(C)C)C(=O)NCC(=O)NC(CC(N)=O)C(=O)O)C(C)CC` (stereo unspecified) (H-LHNRIILGN-OH; configuration not given here), the EC50 is greater than 47.9 µM and the IC50 was greater than 47.9 µM.

For `Cc1cc(=O)n2cn[nH]c2n1`, the EC50 is greater than 200 µM and the IC50 is greater than 200 µM.

Consider `CC(=O)OC1(C)C(=O)OC1(C)C(C)=O` (stereo unspecified), for which the outcome was inactive.

Regarding `CC(=O)C(=C(I)I)c1ccccc1`, the result was inactive.

For `COC1=CC2C3Cc4c(-c5cc(OC)c(O)c6c5CC5C7C=C(OC)C(=O)CC67CCN5C)cc(OC)c(O)c4C2(CCN3C)CC1=O` (stereo unspecified), the EC50 was greater than 200 µM; the IC50 was > 200 µM and 132 µM and 117 µM.

As for `C=C1C(=O)[C@@]23C(O)C[C@@H]4C(C)(C)CCCC4(COC(C)=O)[C@@H]2[C@@H](O)C[C@@H]1[C@H]3O` (stereo partly specified), the EC50 is greater than 631 µM; the IC50 was 1.95 µM and 1.02 µM.

For `Cc1cc2c(cc1Cl)SC(C(=O)c1ccc(Cl)c(Cl)c1)=NS2(=O)=O`, the outcome was inactive.

As for `C=CCCCN1C(=O)CCCC1=O`, the outcome was inactive.

As for `COc1cc(/C=C/C=C2\CC/C(=C\C=C\c3ccc(O)c(OC)c3)C2=O)ccc1O`, the EC50 is greater than 200 µM and the IC50 was determined as 13.2 µM.

As to `CC(C)CCC[C@@H](C)[C@H]1CC[C@H]2[C@@H]3CC[C@H]4CC5(C[C@]4(C)[C@H]3CC[C@]12C)Nc1ccccc1S5` (stereo partly specified), the EC50 was greater than 20 µM and the IC50 is greater than 20 µM.

Regarding `C(=N\N=C\c1ccccn1)/c1ccccn1`, the EC50 is greater than 200 µM and the IC50 came to 61.7 µM.

Take `CC[N+]1(C2=C([O-])C(F)(F)C2=O)CCCCC1`: the EC50 was greater than 200 µM and the IC50 is greater than 200 µM.

`C=C(CCCC(C)OC(=O)NC(C)c1cccc2ccccc12)[Si](C)(C)C` (stereo unspecified): the EC50 was greater than 18.6 µM and the IC50 was greater than 18.6 µM.

Take `CSc1nc(C)c(CCOC(C)=O)c(Cl)n1`: the EC50 is greater than 200 µM and the IC50 is greater than 200 µM.

As to `N#C/C(=C\n1c(=S)[nH]c2ccc([N+](=O)[O-])cc21)C(=O)c1ccc2ccccc2c1`, the EC50 is greater than 200 µM and the IC50 is greater than 200 µM.

With `CC(C)(C)c1ccc(O)c(C(O)c2cccnc2)c1` (stereo unspecified), the EC50 was greater than 200 µM and the IC50 worked out at 61.7 µM.

On to `Cc1[nH]n(C2=NCCN2)c(=O)c1Cc1ccccc1`, for which the EC50 is greater than 200 µM and the IC50 is greater than 200 µM.

Turning to `C=C1C(=O)OC2/C=C(\C)CC/C=C(\C)CC(OC(=O)/C(=C/CO)CO)[C@@H]12` (stereo partly specified), the EC50 was greater than 200 µM and the IC50 was 0.933 µM.

In the case of `CN(C)Cc1cc(C23CC4CC(CC(C4)C2)C3)cc(-c2ccccc2)c1O`, the outcome was inactive.

With `CC1CCSC(N(C(=O)N(C)c2ccccc2)c2ccccc2)=N1` (stereo unspecified), the EC50 is greater than 741 µM and the IC50 was found to be 724 µM.

Consider `COc1cc2c(c(O)c1O)C(=O)C1CCC(=O)N1C2c1cccc2ccccc12` (stereo unspecified), for which the EC50 was greater than 50.1 µM and the IC50 stood at 35.5 µM.

For `O=C1NN2CCN=C2c2ncccc21`, the EC50 is greater than 933 µM and the IC50 was greater than 933 µM.

As for `CC(=O)n1nc(C)c(-c2onc3ccc(Cl)cc23)c1C`, the EC50 is 40.7 µM and the IC50 stood at 44.7 µM.

`Cc1cc2nc(-c3ccccc3Cl)[nH]c2cc1C`: the EC50 was greater than 100 µM and the IC50 worked out at 32.4 µM.

As for `COc1cc(C2c3cc4c(cc3OC(NNS(=O)(=O)c3ccc(C)cc3)C2C)OCO4)cc(OC)c1OC` (stereo unspecified), the EC50 was greater than 20 µM and the IC50 came to 0.372 µM.

With `C1CCOC2(CCC3(CC2)OCCCCO3)OC1`, the result was inactive.

With `CCC1(NC(=O)CN)C(=O)NC(=O)NC1=O`, the EC50 was greater than 200 µM and the IC50 was greater than 200 µM.

In the case of `O=C(CCCl)N1CCN(C(=O)CCCl)c2c1c1ccccc1c1ccccc21`, the EC50 was greater than 200 µM and the IC50 turned out to be 3.02 µM.

On to `N#CC1=C(N)CCC(C#N)(c2ccccc2)C1` (stereo unspecified), for which the EC50 is greater than 200 µM and the IC50 is greater than 200 µM.

As to `CCOc1cc(N=Nc2cc(Cl)c(S(=O)(=O)O)cc2Cl)c2cc(S(=O)(=O)O)ccc2c1N=Nc1c(S(=O)(=O)O)cc2cc(NC(=O)c3ccc(N)cc3)ccc2c1O`, the result was active.

As to `O=C(NCCCCCCNC(=O)c1ccccn1)c1ccccn1`, the EC50 is greater than 200 µM and the IC50 was 191 µM.

For the compound `C1CCCCC/C2=C(\CCCC1)CSCCCS2`, the EC50 is greater than 200 µM and the IC50 is 58.9 µM.

For the compound `NNC(=O)CCC(=O)Nc1cc(Cl)c(Cl)cc1Cl`, the EC50 is greater than 115 µM and the IC50 is greater than 115 µM.

Turning to `CN1C(=N\S(=O)(=O)c2ccc(Cl)cc2)/C(=N/N=P(c2ccccc2)(c2ccccc2)c2ccccc2)c2ccccc21`, the EC50 was greater than 2.34 µM and the IC50 is greater than 2.34 µM.

For the compound `O=[N+]([O-])c1ccccc1OCCOc1ccccc1[N+](=O)[O-]`, the EC50 is greater than 200 µM and the half-inhibitory concentration (IC50) was greater than 200 µM.

Turning to `COc1ccc(NCC(=O)Nn2c(C)nc3ccc(S(=O)(=O)Nc4ccc(OC)cc4)cc3c2=O)cc1`, the EC50 was greater than 100 µM and the IC50 is greater than 100 µM.

Values taken from PubChem BioAssay AID179 (DTP/NCI, 2004).
